Laboratory results from PMC9475553, “SHF Acts as a Novel Tumor Suppressor in Glioblastoma Multiforme by Disrupting STAT3 Dimerization” (Advanced Science, 2022).

Tests used:
GBM cells = assay: Annexin V flow cytometry apoptosis assay; format: cell-based, human; conditions: 25 uM stated adequate for subsequent experiments, n=3
Description: Cell apoptosis was detected by flow cytometry according to the manufacturer's instructions of the Annexin V‐FITC Apoptosis Detection Kit (KeyGen Biotech, China). Briefly, cells were incubated with Doxorubicin (DOX, 2 µM) for 48 h. Cells were harvested and rinsed with ice‐cold PBS and then resuspended in 200 µL of binding buffer. 10 mL of AV‐FITC stock solution was added to cell suspensions and incubated for 15 min at RT. Cells were further rinsed with 200 µL ice‐cold PBS and immediately analyzed by a FACScan flow cytometry.
Supplementary Fig. 9 C16 inhibits tumor growth and promotes chemosensitivity in vitro.
B. Colony formation of cells treated with SC or C16 (left) and the accompanying statistical
analysis (right; n=6, Student’s t-test, **P < 0.01).
C. Annexin V staining flow cytometry assay of cells simultaneously treated with Dox with SC or
C16 for 48 h (n=3, Student’s t-test, *P < 0.05, **P < 0.01).
(1 picture or pasted object on this page, not shown here)

[1] = test system: STAT3 transcriptional activity; assay: STAT3 transcriptional reporter (SIE luciferase) assay in U87 cells; format: cell-based, human; conditions: C16 for 12 h, n = 3, p < 0.01
Description: Figure 7 Peptide derived from the STAT3‐binding sites of SHF is an effective GBM suppressive strategy. A) Binding model between SHF and STAT3 using ZDOCK server. […] B) IF staining determined the cell penetrability and nuclear‐localization of C16. U251 cells were incubated with C16 or SC for 2 h and performed IF staining using the indicated antibodies. Bars, 10 µm. C) The statical analysis of adsorption equilibrium assay detecting the binding of C16 and SC with recombinant STAT3. D) Pull‐down assay indicating C16 binds STAT3. GST‐STAT3 was incubated with C16 or SC for 2 h, and the pull‐down assay was performed using Anti‐His magnetic beads. E) IP assay showing the effect of C16 on STAT3 dimerization. 293T cells transfected with indicated vectors were incubated with C16 for 2 h. The relative quantification of STAT3 dimerization was listed. F) IP assay detecting the effect of C16 on the interaction of STAT3 and DNMT1. […] The relative quantification of STAT3/DNMT1 interaction was listed. […] The relative quantification of STAT3/DNMT1 interaction was listed. […] Positive cells were quantified 20 randomly selected fields per mouse (n = 6, Student's t‐test, **p < 0.01). […]
STAT3 transcriptional activity was evaluated by a luciferase reporter system according our previously study.^[ [19] ^] […] Cells were collected, lysed, and measured using the Dual‐Glo Luciferase Assay System kit (Promega).

C16: peptide spanning SHF amino acids 388–421, palmitic acid at the N-terminus, amidated C-terminus, 3× His tags added to the C-terminal (PFSSVPEIVHHYASRKLPIKGAEHMSLLYPVAIR; palmitic acid at the N-terminus; amidated C-terminus; left off: 3× His tags, C-terminal, kept)
spontaneous apoptosis (GBM cells; C16 vs SC): without increasing spontaneous apoptosis
chemosensitivity (apoptosis with Dox) (GBM cells; simultaneous Dox with SC or C16 for 48 h): promoted chemosensitivity
STAT3 transcriptional activity [1]: significant decrease
